The values below come from patent publication US20130136772A1, “REGULATION OF IMMUNE RESPONSE BY COLOCYNTHIN AND/OR ITS DERIVATIVES” (priority 2010, published 2013).

In assay [1] the test system is leucocyte migration. The experiment in a line: In vivo leucocyte migration (carrageenan induced pleurisy). The arrangement: species or system mice. The settings on record: 5 mg/kg p.o. The procedure: Mice were injected with 0.2 ml of carrageenan (1% w/v) solution in sterilised normal saline into the pleural cavity by the modified method of Meacock and Kitchen, 1979 [Meacock S C R, Kitchen E A, (1979). Effect of non-steroidal antiinflammatory drug benoxaprofen on leukocyte migration. Journal of Pharmacy & Pharmacology; 31: 366-370]. The test drug was administered orally 1 h before and 6 h after the injection. After 24 h of carrageenan injection the pleural exudate was collected, volume measured and the total leucocyte count of the pleural fluid was determined (Table 3). Flowcytometry as a tool for evaluation of neutrophils is particularly useful because of their larger size than monocytes and lymphocytes when analysed on the forward scatter [FSc]. The percentage of these can be analysed by selectively ‘gating’ the neutrophils without physical separation of the cells (FIG. 4).

In assay [2] the test system is peritoneal murine macrophages. The assay is described as follows: Phagocytosis of heat killed Candida albicans by murine macrophages (in vitro). The class given is cell-based. The conditions noted are these: 5 μg/ml. The procedure: The method of Lehrer (1981) [Lehrer, R. I. Ingestion and destruction of Candida albicans. (1981) In: Methods for studying mono-nuclear phagocytes. Eds. Adams, D. O., Edelson, P. J. and Koren, H. (Academic Press, New York) 693-7081 was followed. The percentage and average number of Candida albicans cells (heatkilled) ingested by peritoneal murine macrophages was calculated. AD-B-63B was tested at the doses of 1, 2.5, Sand 10 μg/mL (Table 4).

Assay [3] deals with skin allograft rejection. The experiment in a line: Skin allograft rejection time. The settings on record: for GRAFT REJECTION (Percent), delayed: 5 mg/kg p.o. The class given is in vivo, mice. The procedure:
The modified method of Billingham and Medawar (1951) [[…]] was followed to study the skin allograft rejection time in mice. Graded doses of test material AD-B-63B were administered to the animals for 7 days and graft rejection time (GRT) was recorded by daily observation of epithelial skin layer survival. […] The basic mechanism involved in increase in graft rejection time is the suppression of T lymphocytes. After transplantation, MHC peptide complexes of the foreign organ are recognized by CD4+ and CD8+ T cells of the recipient as non-self antigens. These T cells differentiate into effector T cells and stimulate an immune response. After T cells differentiate and migrate to the site, macrophages and other inflammatory agents are mediated to the site. Cytotoxic T cells (CD8+) lyse the endothelial cells on the graft, CD4+ Th1 activate macrophages and CD4+ Th2 aid in antibody production.

For assay [4], the system named is cell mediated immune response (DTH). The assay is described as follows: SRBC induced delayed type hypersensitivity (DTH) response. Type of assay: in vivo, mice. The settings on record: 5 mg/kg p.o. Here is the method: Test material was administered 2 h after immunization of mice by 200 μl of 5×10^9 SRBCs/ml. On 7th day, the thickness of the left hind foot was measured with spheromicrometer (0.01 mm pitch) and was considered as control. These mice were then challenged by injecting the 20 μl of 5×10^9 SRBCs/ml intradermally into the left hind footpad. The footpad thickness was measured again at 24 h after challenge (Doherty, 1981).

For assay [5], the system named is humoral antibody response. The assay is described as follows: SRBC induced haemagglutination antibody titre (humoral immune response). Type of assay: in vivo, mice. The procedure: 200 μl of 5×10^9 SRBC/ml was used to immunize the animals on day 0. Animals were treated with graded doses of AD-B-63B i.e., 1, 2.5, 5 and 10mg/kg p.o. for next six consecutive days. Blood samples were collected on day 7 for antibody titre assay. Haemagglutination antibody titre was determined following the microtitration technique described by Nelson and Midenhall, 1967. The value of highest serum dilution causing visible Haemagglutination was taken as titre. BSA saline alone served as control (Table 7).

For assay [6], the system named is TNF-α. The assay is described as follows: Intracellular TNF-α estimation in LPS activated murine neutrophils by flowcytometry. The class given is cell-based. The settings on record: 100 μg/ml. Here is the method: Flowcytometric studies were carried out to determine the anti-inflammatory effect of AD-B-63B on TNF-α cytokine expression in LPS activated murine neutrophils. Neutrophils play essential roles in host defence through their ability to clear bacterial infections. Their inappropriate activation contributes to a variety of inflammatory diseases, from the acute respiratory distress syndrome to asthma, chronic obstructive pulmonary disease and rheumatoid arthritis. TNF-α was chosen as the target for anti-inflammatory activity because of the fact that it is a pro-inflammatory cytokine and plays a major role in the pathogenesis of septic shock induced by LPS (Lipopolysaccharide) endotoxin injection [Remick, D. G.; Strieter, R. M.; Eskandari, M. K.; Nguyen, D. T.; Genord, M. A.; Raiford, C. L. Am. J. Path. 1990, 136, 49.]. LPS is an important triggering factor for in vivo systemic inflammatory response [Bone, R. C. Chest 1991, 100, 802]. LPS activates neutrophils via engagement of TLR4 (Toll-like receptor 4),[Sabroe, I.; Read, R. C.; Whyte, M. K. B.; Dockrell, D. H.; Vogel, S. N.; Dower, S. K. J. Immunol. 2003, 171, 1630.] resulting in the induction of a characteristic pro-inflammatory phenotype and prolongation of cell lifespan [Lee, A.; Whyte, M. K. B.; Haslett, C. J. Leukoc. Biol. 1993, 54, 283].
The anti-inflammatory activity of AD-B-63B was measured by the estimation of intracellular tumor necrosis factor alpha (TNF-α) expression in a gated population of neutrophils [Clara, B., R. C. Arancha, G. M. Andre's, P. Atanasio, A. Julia, and O. Alberto. 2003. A new method for detecting TNF-α-secreting cells using direct immunofluorescence surface membrane stainings. J. Immuno. Methods 264:77-87.]. Murine blood was subjected to centrifugation at 250× g for 20 min. Three layers were formed: an upper layer of platelet-rich plasma, a buffy coat middle layer and a lower layer formed of red blood cells. The middle layer was removed and subjected to Histopaque 1077 (Sigma) gradient separation. The upper layer containing neutrophils was removed and transferred to FACS tubes (Becton Dickinson). Lipopolysaccharide (LPS) derived from Escherichia coli (Sigma) was added at a concentration of 10 ng/ml for the stimulation of the cells. AD-B-63B was added at graded concentrations of 0.5, 1, 2.5, 5, 10 and 20 μg/ml. Samples were incubated for 3 h at 37° C. ( Table 1) Controls consisted of LPS-stimulated cells (LPS control). Further processing was done by the addition of FACS permeabilizing solution (Becton Dickinson), followed by the addition of phycoerythrin (PE)-labeled anti-mouse TNF-α. (Becton Dickinson). The cells were incubated in the dark, and after being washed with sterile PBS, samples were resuspended in PBS (pH 7.4) and acquired directly on the flow cytometer (FACS CANTO; Becton Dickinson). A fluorescence trigger was set on the […] parameter of the gated neutrophil populations (10,000 events). Rolipram at 100 μg/ml was used as standard inhibitor of TNF-α in this study. Fluorescence compensation, data analysis and data presentation were performed using software (Becton Dickinson) (FIG. 1) [Pandey A, Bani S, Kaul S, Sangawan P L; 2010, Selective Th1 upregulation by ethyl acetate fraction of Labisia pumila; 132 (2010) 309-315].

Assay [7] relates to Interleukin-1beta (IL-1β). The experiment in a line: Extracellular IL-1β in LPS stimulated murine neutrophils (ELISA, in vitro). Type of assay: cell-based. The conditions noted are these: 100 μg/ml. The procedure: Neutrophils were separated from whole blood by Histopaque gradient method (Histopaque-No. 1077). Cell count was adjusted to approximately 10^5/[…]. Lipopolysaccharide, at the concentration of 10 ng/ml was used as stimulus in in-vitro studies. […] Extracellular IL-1β was estimated through ELISA (Table 2) [Weir, R. E., Morgan, A. R., Britton, W. J., Butlin, C. R., Dockrell, H. M., 1994. Development of a whole blood assay to measure T cell responses to leprosy: a new tool for immuno-epidemiological fields studies of leprosy immunity. J. Immunol. Methods. 176, 93; Hussain, R., Kaleem, A., Shahid, F., Dojki, M., Jamil, B., Mehmood, H., Dawood, G., Dockrell, H., 2002. Cytokine profiles using whole blood assays can discriminate between tuberculosis patients and healthy endemic controls in a BCG-vaccinated population. J. Immunol. Methods. 264, 95-108]

Turning to `C[C@]12C=CC(=O)C=C1CC[C@@H]1[C@@H]2[C@@H](O)C[C@@]2(C)[C@H]1CC[C@]2(O)C(=O)CO` [Prednisolone, reference compound], in assay [1], the “% inhibition of exudate volume” value is listed as “(47.27%↓)” and the “% inhibition of total leucocyte count” value was “(33.23%↓)”. The “EXUDATE VOLUME Mean ± S.E.” value in assay [1] (1 h before and 6 h after carrageenan, pleural exudate at 24 h) was found to be 0.58 ± 0.28 mL. In assay [2], the “% phagocytosis [in vitro study] Mean ± S.E.” value stood at 15.99 ± 2.17% and the “percent decrease in phagocytosis” value worked out at 40.35%. Further, the “percent decrease in phagocytosis” value in assay [2] (listed as PREDNISOLONE) is listed as “(40.35%↓)”. In assay [3], the “GRAFT REJECTION (Percent), delayed” value is listed as 39.69%. The “REJECTION TIME Mean ± S.E.” value in assay [3] (5 mg/kg p.o. for 7 days) worked out at 18.16 ± 0.16 days. In assay [3] (listed as PREDNISOLONE), the “GRAFT REJECTION (Percent), delayed” value is on record as 39.69↓ %. In addition, the “PERCENT INHIBITION (DTH response)” value in assay [4] was 35.86↓ %. Moreover, the “FOOT PAD THICKNESS Mean ± SE” value in assay [4] (24 h after SRBC challenge) is reported as 0.59 ± 0.05 mm. In assay [5] (5 mg/kg p.o.), the “% ACTIVITY (decrease in antibody titre)” value was 35.22↓ %. For the same molecule, the “ANTIBODY TITRE MEAN ± S.E” value in assay [5] (5 mg/kg p.o. for six days, blood on day 7) is listed as 3.99 ± 0.22.

For `COc1ccc(C2CNC(=O)C2)cc1OC1CCCC1` (centres unmarked) [Rolipram, reference compound], the “Expression of intracellular TNF-alpha, Mean ± S.E” value in assay [6] (LPS 10 ng/ml, 3 h) is 0.74 ± 0.04. Moreover, in assay [6] (Mus musculus, Neutrophil, read-out: % TNF-alpha inhibition against LPS control), the inhibition at 100 µg/mL was 72.5%. For the same molecule, the “% activity IL-1β expression against LPS control (decrease)” value in assay [7] is recorded as 52.85↓ %. The “Concentration of IL-1β produced Mean ± S.E.” value in assay [7] (LPS 10 ng/ml, 4 hr) is 63.52 ± 2.07 pg/mL.

The inhibition is the percentage by which the read-out fell short of the control.
